Data reported in patent US20230066008A1, “ANTIPARASITIC COMPOSITION” (DERMALIQ THERAPEUTICS, INC., priority 2020, published 2023).
Read-outs that look alike come from different tables or passages of the source.

Settings: for Solubility (%w/v): crotamiton tests
Experimental: 500 mg crotamiton (SynTech, Ph.Eur. grade) is weighed in a 5-ml volumetric flask; the flask is then filled to 5 ml with F6H8 (Novaliq, purity >99%), closed and shaken for 5 min at 280 rpm, RT.

## CC=CC(=O)N(CC)c1ccccc1C [Crotamiton, crotamiton]
100 mg/ml (10% w/v) in F6H8, shaken 5 min at 280 rpm, RT
  Appearance of resulting solution: clear
Solvent F4H5
  Solubility (%w/v): >12%w/v
Solvent F6H2
  Solubility (%w/v): ^~6%w/v
Solvent F6H8
  Solubility (%w/v): >12%w/v
